Results taken from patent US6716588B2, “System for cell-based screening” (Cellomics, Inc., priority 1999, dated 2004).

Tests used:
PC-3 cells = test: Cell spreading assay, PC-3 cells; type: cell-based, human; details: for ability of cells to spread (percentage of cells with Cyto minus NucArea above threshold): PC-3 on type I collagen, 3 hours
Experimental: (§1) Compounds that interfere with metastasis of prostate carcinoma cells were screened as follows. PC3 human prostate carcinoma cells (ATCC # CRL 1435) were cultured in media with appropriate stimulants and passaged to collagen coated 96 well plates. Similar experiments were also conducted with MDA-MB231, a breast carcinoma cell line (ATCC # HTB-26), A549 human lung carcinoma cell line (ATCC # CCL 185), and primary HMVEC-d human skin microvessel endothelial cells (Clonetics Walkersville, Md.
(§2) Conditions in which cell spreading could be augmented or diminished were tested in various ways, including plating the cells on collagen coated (various concentrations) or collagen free substrates, varying the time of cell spreading prior to analysis, and plating cells in the presence of chemical modulators. After two hours, cells were fixed and stained with ALEXA™ 488 phalloidin (Molecular Probes) and Hoechst 33342 as per the protocol for cellular hypertrophy. The size of cells under these various conditions, as measured by cytoplasmic staining, was distinguished from background levels. The number of cells per field was determined by measuring the number of nuclei stained with the Hoechst DNA dye. The area per cell was found by dividing the cytoplasmic area (phalloidin image) by the cell number (Hoechst image).

A549 cells [1] = test: Cell movement (motility) of A549 cells; type: cell-based, human; details: for inhibition of cell movement (motility): 10 μM; for stimulation of movement by matrix protein: A549 cells plated on matrix protein
Experimental: (§3) To illustrate how cell spreading is a unique functional event that can be distinguished from attachment and motility by drug effects, we performed the following experiments. A549 cancer cells were allowed to spread on a collagen I coated substrate for 3 hours, and then were fixed and stained with rhodamine phalloidin. The number of cells that spread beyond a selectable threshold area was measured as a function of increasing concentrations of cytochalasin D. While cells normally spread to a size much larger than the nucleus in this time interval, cytochalasin D maintained cells in a tight rounded morphology not much larger than the nucleus. The movement of A549 cells was measured at 18 hours after plating. At a concentration of 0.5 μM, cytochalasin D prevented spreading of 80% of cells but permitted movement of 70% of cells. Cytochalasin had no effect on adhesion to the substrate as measured by the number of cells that remain attached after a 3 hour incubation.
(§4) The spreading of cells is a function of the ligands and cell receptors that are employed, and plating cells on different immobilized ligands will selectively bind to matched cell surface receptors. A549 cells were plated on various matrix proteins and allowed to spread for 3 and for 5 hours. […] Thus ligand-dependent differences in the kinetics of cell spreading can be measured. In addition, strong differences in the activation of spreading were seen on different matrices. […] In contrast to spreading, cell motility presented a very different biological profile of these matrix proteins. […] In further experiments, cells were allowed to spread in the presence of various kinase inhibitors and the effect on cell spreading was determined.

A549 cells [2] = test: Cell spreading assay, A549 cells; type: cell-based, human; details: for inhibition of cell spreading: 10 μM; for stimulation of spreading by matrix protein / completeness of cell spreading on matrix protein: A549 cells plated on matrix protein
Experimental: as §1, §2, §3, §4

L-929 cells = test: High-content screen of drug-induced apoptosis, L-929 cells; type: cell-based, mouse
Experimental: (§5) Cell preparation. The cells chosen for this study were mouse connective tissue fibroblasts (L-929; ATCC CCL-1) and a highly invasive glioblastoma cell line (SNB-19; ATCC CRL-2219) (Welch et al., In Vitro Cell. Dev. Biol. 31:610, 1995). The day before treatment with an apoptosis inducing drug, 3500 cells were placed into each well of a 96-well plate and incubated overnight at 37° C. in a humidified 5% CO2 atmosphere. The following day, the culture medium was removed from each well and replaced with fresh medium containing various concentrations of paclitaxel (0-50 μM) from a 20 mM stock made in DMSO. The maximal concentration of DMSO used in these experiments was 0.25%. The cells were then incubated for 26 h as above. At the end of the paclitaxel treatment period, each well received fresh medium containing 750 nM MitoTracker Red (Molecular Probes; Eugene, Oreg.) and 3 μg/ml Hoechst 33342 DNA-binding dye (Molecular Probes) and was incubated as above for 20 min. Each well on the plate was then washed with HBSS and fixed with 3.7% formaldehyde in HBSS for 15 min at room temperature. The formaldehyde was washed out with HBSS and the cells were permeabilized for 90 s with 0.5% (v/v) Triton X-100, washed with HBSS, incubated with 2 U ml^−1 Bodipy FL phallacidin (Molecular Probes) for 30 min, and washed with HBSS. The wells on the plate were then filled with 200 μl HBSS, sealed, and the plate stored at 4° C. if necessary. The fluorescence signals from plates stored this way were stable for at least two weeks after preparation. As in the nuclear translocation assay, fluorescence reagents can be designed to convert this assay into a live cell high-content screen.
Image acquisition and analysis on the ArrayScan System. The fluorescence intensity of intracellular MitoTracker Red, Hoechst 33342, and Bodipy FL phallacidin was measured with the cell screening system as described supra. Morphometric data from each pair of images obtained from each well was also obtained to detect each object in the image field (e.g., cells and nuclei), and to calculate its size, shape, and integrated intensity.
Calculations and output. A total of 50-250 cells were measured per image field. For each field of cells, the following calculations were performed: (1) The average nuclear area (μm^2) was calculated by dividing the total nuclear area in a field by the number of nuclei detected. (2) The average nuclear perimeter (μm) was calculated by dividing the sum of the perimeters of all nuclei in a field by the number of nuclei detected in that field. Highly convoluted apoptotic nuclei had the largest nuclear perimeter values. (3) The average nuclear brightness was calculated by dividing the integrated intensity of the entire field of nuclei by the number of nuclei in that field. An increase in nuclear brightness was correlated with increased DNA content. (4) The average cellular brightness was calculated by dividing the integrated intensity of an entire field of cells stained with MitoTracker dye by the number of nuclei in that field. Because the amount of MitoTracker dye that accumulates within the mitochondria is proportional to the mitochondrial potential, an increase in the average cell brightness is consistent with an increase in mitochondrial potential. (5) The average cellular brightness was also calculated by dividing the integrated intensity of an entire field of cells stained with Bodipy FL phallacidin dye by the number of nuclei in that field. […]

SNB-19 cells = test: High-content screen of drug-induced apoptosis, SNB-19 cells; type: cell-based
Experimental: as §5, with “Each well on the plate was then washed with HBSS and fixed with 3.7% formaldehyde in HBSS for 15 min at room temperature. The formaldehyde was washed out with HBSS and the cells were permeabilized for 90 s with 0.5% (v/v) Triton X-100, washed with HBSS, incubated with 2 U ml^−1 Bodipy FL phallacidin (Molecular Probes) for 30 min, and washed with HBSS. The wells on the plate were then filled with 200 μl HBSS, sealed, and the plate stored at 4° C. if necessary.” left out
Image acquisition and analysis on the ArrayScan System. The fluorescence intensity of intracellular MitoTracker Red, Hoechst 33342, and Bodipy FL phallacidin was measured with the cell screening system as described supra. […]
Calculations and output. A total of 50-250 cells were measured per image field. For each field of cells, the following calculations were performed: (1) The average nuclear area (μm^2) was calculated by dividing the total nuclear area in a field by the number of nuclei detected. (2) The average nuclear perimeter (μm) was calculated by dividing the sum of the perimeters of all nuclei in a field by the number of nuclei detected in that field. […] (3) The average nuclear brightness was calculated by dividing the integrated intensity of the entire field of nuclei by the number of nuclei in that field. […]

[3] = system: NF-KB transcription factor; test: Cytoplasm to nucleus translocation screen of NF-KB (NucCyt Difference); type: cell-based, human; details: titrated in the presence of IL-1α
Experimental: The distribution of the transcription factor is determined by labeling the nuclei with a DNA specific fluorophore like […] and the transcription factor with a specific fluorescent antibody. After autofocusing on the Hoechst labeled nuclei, an image of the nuclei is acquired in the cell-based screening system and used to create a mask by one of several optional thresholding methods, as described supra. The morphological descriptors of the regions defined by the mask are compared with the user defined parameters and valid nuclear masks are identified and used with the following method to extract transcription factor distributions. Each valid nuclear mask is eroded to define a slightly smaller nuclear region. The original nuclear mask is then dilated in two steps to define a ring shaped region around the nucleus, which represents a cytoplasmic region. The average antibody fluorescence in each of these two regions is determined, and the difference between these averages is defined as the NucCyt Difference. […] Using these two sampling regions, data on nuclear translocation can be automatically analyzed by the cell-based screening system on a cell by cell basis. […]

C[S+](C)[O-] [DMSO]
ability of cells to spread (percentage of cells with Cyto minus NucArea above threshold) (PC-3 cells; DMSO 2.5%): significantly reduced | ability of cells to spread (percentage of cells with Cyto minus NucArea above threshold) (PC-3 cells; DMSO 5%): significantly reduced | ability of cells to spread (percentage of cells with Cyto minus NucArea above threshold) (PC-3 cells; DMSO at or below 1%): no effect

O=C(O)CN(CCN(CC(=O)O)CC(=O)O)CC(=O)O [EDTA]
cell adherence (PC-3 cells; PC-3 cells, 50 mM): inhibited cell adherence | cell spreading (PC-3 cells; PC-3 cells, 50 mM): inhibited cell spreading

CN([C@@H](Cc1ccc(OS(=O)(=O)c2cccc3cnccc23)cc1)C(=O)N1CCN(c2ccccc2)CC1)S(=O)(=O)c1cccc2cnccc12 [KN-62]
inhibition of cell movement (motility) (A549 cells [1]): ineffective | inhibition of cell spreading (A549 cells [2]): ineffective

C=C1[C@@H](C)[C@H]2[C@H](Cc3ccccc3)NC(=O)[C@]23[C@H](OC(C)=O)/C=C/[C@@](C)(O)C(=O)[C@@H](C)C/C=C/[C@H]3[C@@H]1O [cytochalasin D]
cells permitted to move (A549 cells [1]; 0.5 μM, movement measured at 18 hours after plating): 70% | binding of cells to the substrate (PC-3 cells; cell line not given): did not affect binding of cells to the substrate | spreading on various substrates (PC-3 cells; cell line not given): prevented their spreading | cells prevented from spreading (A549 cells [2]; 0.5 μM, collagen I coated substrate, 3 hours): 80% | adhesion to the substrate (number of cells that remain attached) (A549 cells [2]; 3 hour incubation): no effect

O=c1c(-c2ccc(O)cc2)coc2cc(O)cc(O)c12 [genistein]
inhibition of cell movement (motility) (A549 cells [1]): ineffective | inhibition of cell spreading (A549 cells [2]): ineffective

CC(=O)O[C@H]1C(=O)[C@@]2(C)[C@H]([C@H](OC(=O)c3ccccc3)[C@]3(O)C[C@H](OC(=O)[C@H](O)[C@@H](NC(=O)c4ccccc4)c4ccccc4)C(C)=C1C3(C)C)[C@]1(OC(C)=O)CO[C@@H]1C[C@@H]2O [paclitaxel]
concentration of maximal response in many parameters (L-929 cells; L-929 cells, 26 h): 5 µM | mitochondrial potential (L-929 cells; L-929 cells, any of the concentrations tested (0-50 μM)): did not show a sharp decrease | sensitivity to low concentrations compared with SNB-19 cells (L-929 cells; L-929 cells, each parameter measured): less sensitive | nuclear morphology (L-929 cells; L-929 cells, increasing amounts of paclitaxel): caused nuclei to enlarge and fragment | dose of maximal response, L-929 relative to SNB-19 cells (L-929 cells; L-929 vs SNB-19): 500 fold | mitochondrial potential (SNB-19 cells; 10 nM paclitaxel, 26 h): minimal | concentration at which area, brightness, fragmentation of the nucleus and actin polymerization reached a maximum value (SNB-19 cells; 26 h): 10 nM | all the parameters measured at increasing concentrations (SNB-19 cells; >10 nM paclitaxel): approached control levels

Calphostin C
inhibition of cell movement (motility) (A549 cells [1]): equally effective at inhibiting cell spreading and movement | inhibition of cell spreading (A549 cells [2]): equally effective at inhibiting cell spreading and movement

IL-1RA: an antagonist to the receptor for IL-1
inhibition of translocation induced by IL-1α [3]: progressively inhibiting the translocation

collagen I: matrix protein used as substrate coating
stimulation of movement by matrix protein (A549 cells [1]): maximally stimulated both movement and spreading | time at which cell spreading was achieved (PC-3 cells; PC-3 cells on a defined collagen I matrix): 2 to 3 h | stimulation of spreading by matrix protein (A549 cells [2]): maximally stimulated both movement and spreading | completeness of cell spreading on matrix protein (A549 cells [2]; 3 hours): complete by 3 hours

fibronectin
stimulation of movement by matrix protein (A549 cells [1]): minimally stimulated movement | stimulation of spreading by matrix protein (A549 cells [2]): maximally stimulated spreading | completeness of cell spreading on matrix protein (A549 cells [2]; 3 hours): incomplete

laminin
stimulation of movement by matrix protein (A549 cells [1]): maximally stimulated movement | stimulation of spreading by matrix protein (A549 cells [2]): minimally stimulating spreading | completeness of cell spreading on matrix protein (A549 cells [2]; 3 hours): complete by 3 hours
